Measured values from patent publication CN113979875A, “一种地佐辛衍生物晶型a及其制备方法和应用” (Yangtze River Pharmaceutical Group Co Ltd, priority 2020, dated 2022).

Experiments:
[1] = Stress (influencing factor) stability test, crystal form by XRPD (Example 9); format: physicochemical
[2] = Intermediate and long-term storage stability (Example 10); format: physicochemical; details: 12 months
[3] = Grinding test, crystal form by XRPD (Example 7); format: physicochemical; details: agate mortar, thorough grinding for half an hour
[4] = target: κ opioid receptor (κ阿片类受体) (Homo sapiens, UniProt P41145); test: Radioligand competitive binding, κ opioid receptor (Example 12)
[5] = target: μ opioid receptor (μ阿片类受体) (Homo sapiens, UniProt P35372); test: Radioligand competitive binding, μ opioid receptor (Example 12)
[6] = target: δ opioid receptor (δ阿片类受体) (Homo sapiens, UniProt P41143); test: Radioligand competitive binding, δ opioid receptor (Example 12)
[7] = intermediate condition 30℃±2℃/65%±5%RH
[8] = long-term condition 25℃±2℃/60%±5%RH

SMILES | crystal form ([1]; day 0 (initial)) | crystal form ([1]; high humidity, 5 days) | crystal form ([1]; high humidity, 10 days) | crystal form ([1]; high humidity, 30 days) | crystal form ([1]; high temperature and high humidity, 5 days) | crystal form ([1]; high temperature and high humidity, 10 days) | crystal form ([1]; high temperature and high humidity, 30 days) | crystal transformation (XRPD compared with initial data) ([1]; high temperature and high humidity, high humidity, and light (Figs. 9-17)) | crystal form ([1]; light, 5 days) | crystal form ([1]; light, 10 days) | crystal form ([1]; light, 30 days) | change in all quality indices ([1]; light, high temperature and high humidity, high humidity, packed in medicinal LDPE bag and polyester/aluminium/polyethylene composite film) | chemical stability [2, 7] | crystal form stability [2, 7] | chemical stability [2, 8] | crystal form stability [2, 8] | crystal transformation on grinding [3] | IC50 [4] [nM] | IC50 [5] [nM] | IC50 [6] [nM]
C[C@@]12CCCCC[C@@H](Cc3ccc(O)cc31)[C@@H]2NCc1ccccc1.Cl [地佐辛衍生物晶型A] | 晶型A | 晶型A | 晶型A | 晶型A | 晶型A | 晶型A | 晶型A | 没有发生转晶现象 | 晶型A | 晶型A | 晶型A | 各项指标无明显变化,均符合质量标准要求 | 很好的化学稳定性 | 很好的化学稳定性和晶型稳定性 | 很好的化学稳定性 | 很好的化学稳定性和晶型稳定性 | 未转晶 |  |  | 
C[C@@]12CCCCC[C@@H](Cc3ccc(O)cc31)[C@@H]2NCc1ccccc1.Cl [地佐辛衍生物晶型A, 盐酸盐] |  |  |  |  |  |  |  |  |  |  |  |  |  |  |  |  |  | < 10 | < 10 | < 10
